Source: patent US7166452B2, “Aminoketone asymmetric reductase and nucleic acid thereof” (priority 2001, dated 2007)

Assays:
[1] = test system: aminoketone asymmetric reductase; experiment: Substrate specificity and enzyme activity of purified enzyme (NADPH absorbance at 340 nm); assay type: biochemical, Rhodococcus erythropolis; conditions: for enzyme acts on the compound (substrate specificity): purified enzyme
Method: While 10 μl of 1 M Tris-hydrochloric acid buffer solution (pH 8.0), 25 μl of 16 mM NADP^+, and 215 μl of the purified enzyme solution were held at 43° C., 1 μl of 1-amino-2-hydroxypropane was added thereto, whereby aminoacetone was produced. The increase or decrease in NADPH accompanying the reaction was measured by the change in absorbance at 340 nm. In the measurement of enzyme activity, the enzyme activity by which 1 μmol of 1-amino-2-hydroxypropane was oxidized per 1 min under the following condition was defined as 1 unit (U). As a result, the whole activity was 126 mU, the specific activity was 432 mU/mg, and the activity yield was 0.22%.
It was similarly confirmed that the enzyme acted on 1-2-methylaminopropiophenone, 1-2-dimethylaminopropiophenone, and 1-amino-2-butanone.

[2] = test system: Rhodococcus erythropolis MAK-34; assay type: cell-based
[3] = test system: Mycobacterium smegmatis IAM-12065; assay type: cell-based
[4] = test system: Armillariella mellea IFO-31616; experiment: Influence of inducer addition on d-pseudoephedrine production (Example 6); assay type: cell-based; conditions: cells cultured with inducer 5 g/L, medium 4
[5] = test system: Nocardioides simplex IFO-12069; assay type: cell-based
[6] = test system: Absidia lichtheimi IFO-4409; assay type: cell-based
[7] = test system: Hypocrea gelatinosa IFO-9165; experiment: Influence of inducer addition on d-pseudoephedrine production (Example 6); assay type: cell-based; conditions: cells cultured with inducer 5 g/L, medium 4
[8] = test system: Aspergillus candidus IFO-5468; assay type: cell-based
[9] = test system: Penicillium cyaneum IFO-5337; experiment: Influence of inducer addition on d-pseudoephedrine production (Example 6); assay type: cell-based; conditions: cells cultured with inducer 5 g/L, medium 4
[10] = test system: Mycobacterium chlorophenolicum IFO-15527; assay type: cell-based
[11] = test system: Aspergillus awamori IFO-4033; assay type: cell-based
[12] = test system: Helicostylum nigricans IFO-8091; assay type: cell-based
[13] = test system: Klebsiella pneumoniae IFO-3319; assay type: cell-based
[14] = test system: Tritirachium oryzae IFO-7544; assay type: cell-based
[15] = test system: Rhodococcus erythropolis MAK-34 strain; assay type: cell-based
[16] = test system: aminoketone asymmetric reductase; assay type: biochemical, Rhodococcus erythropolis; conditions: inhibitor at a concentration of 1 mM; purified enzyme
Method: While 10 μl of 1 M Tris-hydrochloric acid buffer solution (pH 8.0), 25 μl of 16 mM NADP^+, and 215 μl of the purified enzyme solution were held at 43° C., 1 μl of 1-amino-2-hydroxypropane was added thereto, whereby aminoacetone was produced. The increase or decrease in NADPH accompanying the reaction was measured by the change in absorbance at 340 nm. In the measurement of enzyme activity, the enzyme activity by which 1 μmol of 1-amino-2-hydroxypropane was oxidized per 1 min under the following condition was defined as 1 unit (U).

[17] = test system: aminoketone asymmetric reductase; experiment: Optimum pH and optimum temperature of purified enzyme; assay type: biochemical, Rhodococcus erythropolis; conditions: 1-amino-2-propanol, NADP+
Method: Ten microliters of the purified enzyme solution, 420 μL of water, 20 μL of 1 M Tris-hydrochloric acid buffer solution, and 50 μL of 16 mM aqueous NADP^+ solution was mixed, and incubated at 45° C., and 2 μL of 1-amino-2-propanol were added thereto, so as to react therewith. Using a spectrophotometer, the activity was calculated from the change in absorbance at 340 nm with time (FIG. 2). As a result, the optimum pH was about 8.1.
Ten microliters of the purified enzyme solution, 420 μL of water, 20 μL of 0.1 M PIPES buffer solution (pH 7.5), and 50 μL of 16 mM aqueous NADP^+ solution was mixed, and incubated at various temperatures, and 2 μL of 1-amion-2-propanol were added thereto, so as to react therewith. Using a spectrophotometer, the activity was calculated from the change in absorbance at 340 nm with time (FIG. 3). As a result, the optimum temperature was 55° C.

## CC(C(=O)c1ccccc1)N(C)C (centres unmarked) [1-2-dimethylaminopropiophenone]
[1]
  enzyme acts on the compound (substrate specificity): acted on

## CNC(C)C(=O)c1ccccc1 (centres unmarked) [1-2-methylaminopropiophenone]
[1]
  enzyme acts on the compound (substrate specificity): acted on

## CCC(=O)CN [1-amino-2-butanone]
[1]
  enzyme acts on the compound (substrate specificity): acted on

## CCC(O)CN (centres unmarked) [1-amino-2-hydroxybutane]
[2]
  AMOUNT OF PRODUCTION (ADDED): 0.65 mg
[3]
  AMOUNT OF PRODUCTION (ADDED): 0.17 mg

## NC1CCCCC1O (centres unmarked) [1-amino-2-hydroxycyclohexane]
[2]
  AMOUNT OF PRODUCTION (ADDED): 0.23 mg
[3]
  AMOUNT OF PRODUCTION (ADDED): 0.13 mg

## CC(O)CN (centres unmarked) [1-amino-2-hydroxypropane]
[2]
  AMOUNT OF PRODUCTION (ADDED): 1.260 mg
[4]
  AMOUNT OF PRODUCTION (ADDED): 0.460 mg
[5]
  AMOUNT OF PRODUCTION (ADDED): 0.190 mg
[6]
  AMOUNT OF PRODUCTION (ADDED): 0.220 mg
[7]
  AMOUNT OF PRODUCTION (ADDED): 0.640 mg
[8]
  AMOUNT OF PRODUCTION (ADDED): 0.018 mg
[3]
  AMOUNT OF PRODUCTION (ADDED): 0.210 mg
[9]
  AMOUNT OF PRODUCTION (ADDED): 1.260 mg
[10]
  AMOUNT OF PRODUCTION (ADDED): 0.770 mg
[11]
  AMOUNT OF PRODUCTION (ADDED): 1.170 mg
[12]
  AMOUNT OF PRODUCTION (ADDED): 0.520 mg
[1]
  enzyme acts on the compound (substrate specificity): acts on
[13]
  AMOUNT OF PRODUCTION (ADDED): 0.066 mg
[14]
  AMOUNT OF PRODUCTION (ADDED): 0.078 mg

## CC(=O)CN [1-amino-2-oxopropane]
[15]
  AMOUNT OF PRODUCTION: 1.97 mg
[1]
  enzyme acts on the compound (substrate specificity): reduction activity

## O=C(O)CN(CCN(CC(=O)O)CC(=O)O)CC(=O)O [EDTA]
[16]
  enzyme activity inhibited by inhibitor: inhibited

## c1cnc2c(c1)ccc1cccnc12 [o-phenanthroline]
[16]
  enzyme activity inhibited by inhibitor: inhibited

## c1ccc(-c2ccccn2)nc1 [α,α′-dipyridyl]
[16]
  enzyme activity inhibited by inhibitor: inhibited

B1: aminoketone asymmetric reductase: enzyme purified from Rhodococcus erythropolis MAK-34; SEQ ID NO:1; tetramer of about 28,500 subunits; coenzyme NADP (protein, listed as Rhodococcus erythropolis)
chain: MFNSIEGRSVVVTGGSKGIGLGMVRVFARAGANVLMTARDALTLERAAEGLNGLPGAVSTLQVDVTNPDSLAGMAEVAAERHGGIDVLCANAGIFPSKRLGEMTSEDMDSVFGVNVKGTIHAVQACMPWLETSGRGRVVVTSSITGPVTGYPGWSHYGASKAAQMGFIRTAAIELAPKRITINAVLPGNVITEGLDGLGQEYLDQMASSVPAGSLGSVEDIANAALFFALDEAAYITGQSLIVDGGQVLPESAMALGEL
modifications: tetramer
notes: enzyme purified from Rhodococcus erythropolis MAK-34; tetramer of about 28,500 subunits; coenzyme NADP
[17]; PIPES buffer pH 7.5
  optimum temperature: 55 °C
[17]; Tris-hydrochloric acid buffer, 45° C.
  optimum pH: about 8.1
[1]; oxidation of 1-amino-2-hydroxypropane, NADP+, pH 8.0, 43° C., 1 U = 1 μmol per 1 min
  specific activity: 432 mU/mg
